Where a name gives a salt, the structure may show the parent alone. Each block holds one compound with its values, some of them ahead of it.
Experiments:
[1] = system: Hek293 cells without cotransfection of any receptor; test: MeNArC and EeNArC negative controls, Hek293 without cotransfection of any receptor; type: cell-based, human; settings: 10 µM agonist
D2R = molecular target: T1, D2R (Homo sapiens, UniProt P14416); test: cell-based; type: cell-based
T1 construct: expressed in transfected cells; host or cells: Hek293 (D2R cotransfected with GRK2, MeN and ArC)

FKBP / FRB = molecular target: T2, FKBP / FRB (UniProt P42345+Q62658); test: rapamycin-induced dimerization of FKBP and FRB fused to the N- and C-terminal NanoLuc fragments; type: cell-based; settings: 50 nM rapamycin; Hek293 cotransfected with both fragments
T2 construct: expressed in transfected cells; host or cells: Hek293

AT1R [2] = molecular target: T3, AT1R (Homo sapiens, UniProt P30556); test: MeNArC β-arrestin membrane recruitment assay, unmodified AT1R, Hek293; type: cell-based
T3 construct: signal peptide (N); expressed in transfected cells; host or cells: Hek293
T3 sequence (P30556 1-359): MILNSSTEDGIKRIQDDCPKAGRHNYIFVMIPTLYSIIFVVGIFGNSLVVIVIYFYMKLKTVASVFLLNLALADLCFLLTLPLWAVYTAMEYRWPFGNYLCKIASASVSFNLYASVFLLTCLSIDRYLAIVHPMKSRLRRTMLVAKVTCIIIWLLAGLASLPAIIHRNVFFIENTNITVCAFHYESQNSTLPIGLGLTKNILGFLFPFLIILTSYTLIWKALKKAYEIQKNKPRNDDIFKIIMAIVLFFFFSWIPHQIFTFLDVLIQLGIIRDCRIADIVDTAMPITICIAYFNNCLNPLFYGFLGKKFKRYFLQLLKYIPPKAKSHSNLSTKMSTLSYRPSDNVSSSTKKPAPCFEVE

AT1R [3] = molecular target: T3, AT1R; test: EeNArC β-arrestin early endosome recruitment assay, unmodified AT1R, Hek293; type: cell-based; settings: 450 mM sucrose, Ang II, early endosomes
MOR 11S/T-A = test: MeNArC β-arrestin2 recruitment assay, MOR 11S/T-A mutant, Hek293; type: cell-based
MOR = MOR (Homo sapiens, UniProt P35372); type: cell-based
MOR, sequence (P35372 whole entry): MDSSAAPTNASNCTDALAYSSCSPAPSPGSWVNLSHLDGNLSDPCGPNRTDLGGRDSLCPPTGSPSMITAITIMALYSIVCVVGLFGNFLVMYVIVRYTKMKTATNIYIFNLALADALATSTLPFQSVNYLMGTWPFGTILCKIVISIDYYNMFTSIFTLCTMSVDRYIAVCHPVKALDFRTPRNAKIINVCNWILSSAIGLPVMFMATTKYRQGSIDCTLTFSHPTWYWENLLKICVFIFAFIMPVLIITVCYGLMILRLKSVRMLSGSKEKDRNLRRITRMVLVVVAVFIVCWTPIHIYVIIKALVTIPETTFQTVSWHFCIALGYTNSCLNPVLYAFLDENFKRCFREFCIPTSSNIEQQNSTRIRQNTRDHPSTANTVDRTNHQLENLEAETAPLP
MOR, sequence (P32121 whole entry partner): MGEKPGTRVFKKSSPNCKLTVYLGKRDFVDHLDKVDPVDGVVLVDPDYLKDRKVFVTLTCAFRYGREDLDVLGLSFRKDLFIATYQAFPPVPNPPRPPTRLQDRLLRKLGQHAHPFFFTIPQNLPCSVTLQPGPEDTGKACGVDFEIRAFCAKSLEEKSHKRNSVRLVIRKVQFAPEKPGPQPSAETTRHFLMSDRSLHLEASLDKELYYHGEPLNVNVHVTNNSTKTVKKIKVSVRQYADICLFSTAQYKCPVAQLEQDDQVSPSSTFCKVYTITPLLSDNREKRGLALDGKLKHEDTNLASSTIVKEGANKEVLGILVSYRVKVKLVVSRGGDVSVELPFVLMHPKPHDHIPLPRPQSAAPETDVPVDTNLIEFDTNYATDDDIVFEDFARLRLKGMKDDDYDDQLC

T1 sequence (P14416 1-414 isoform P14416-2): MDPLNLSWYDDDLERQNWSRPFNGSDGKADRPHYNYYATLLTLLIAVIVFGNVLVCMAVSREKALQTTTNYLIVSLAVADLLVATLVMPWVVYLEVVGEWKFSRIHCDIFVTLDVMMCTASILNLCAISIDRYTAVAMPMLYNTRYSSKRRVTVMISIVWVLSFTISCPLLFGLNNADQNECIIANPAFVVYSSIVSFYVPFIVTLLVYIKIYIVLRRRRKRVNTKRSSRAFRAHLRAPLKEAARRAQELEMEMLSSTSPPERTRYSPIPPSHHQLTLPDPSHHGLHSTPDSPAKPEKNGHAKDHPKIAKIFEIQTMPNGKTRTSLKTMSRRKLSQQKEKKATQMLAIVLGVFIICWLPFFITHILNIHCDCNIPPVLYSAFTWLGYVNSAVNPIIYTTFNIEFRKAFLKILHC
T2 sequence (Q62658 3-108): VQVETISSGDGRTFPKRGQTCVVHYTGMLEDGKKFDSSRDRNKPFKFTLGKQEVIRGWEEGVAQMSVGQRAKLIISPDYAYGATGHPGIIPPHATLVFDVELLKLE
T2 sequence (P42345 2012-2144): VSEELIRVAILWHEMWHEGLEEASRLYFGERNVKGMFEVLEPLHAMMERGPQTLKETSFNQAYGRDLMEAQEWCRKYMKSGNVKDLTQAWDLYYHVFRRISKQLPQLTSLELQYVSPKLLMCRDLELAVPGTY

SMILES: CC[C@H](C)[C@H](NC(=O)[C@H](Cc1ccc(O)cc1)NC(=O)[C@@H](NC(=O)[C@H](CCCNC(=N)N)NC(=O)[C@@H](N)CC(=O)O)C(C)C)C(=O)N[C@@H](Cc1c[nH]cn1)C(=O)N1CCC[C@H]1C(=O)N[C@@H](Cc1ccccc1)C(=O)O [Ang II, Angiotensin II]
response in MeNArC and EeNArC assays without receptor [1]: no response was observed

SMILES: CCN(CC)C(=O)N[C@H]1C[C@@H]2c3cccc4[nH]cc(c34)C[C@H]2N(C)C1 [terguride, Terguride]
EC50 (D2R): 9.55 nM
efficacy compared with dopamine (D2R): 24%

SMILES: CO[C@H]1C[C@@H]2CC[C@@H](C)[C@@](O)(O2)C(=O)C(=O)N2CCCC[C@H]2C(=O)O[C@H]([C@H](C)C[C@@H]2CC[C@@H](O)[C@H](OC)C2)CC(=O)[C@H](C)/C=C(\C)[C@@H](O)[C@@H](OC)C(=O)[C@H](C)C[C@H](C)/C=C/C=C/C=C/1C [rapamycin]
increase of basal luminescence signal by addition of rapamycin (FKBP / FRB): ~30 fold

SMILES: CCCN1CCCC(c2cccc(O)c2)C1 (stereo not shown) [PPP, (3-hydroxyphenyl)-N-propylpiperidine]
efficacy compared with dopamine (D2R): 10%

reversal of agonist-induced β-arrestin recruitment by antagonist added after agonist (AT1R [2]; 0.1 μM Ang II pretreatment, absence or presence of sucrose): could not be reversed
SMILES: CCCc1nc(C(C)(C)O)c(C(=O)O)n1Cc1ccc(-c2ccccc2-c2nnn[nH]2)cc1 [olmesartan]

SMILES: CCN1CCCC1CNC(=O)c1cc(S(N)(=O)=O)ccc1OC (stereo not shown) [sulpiride]
effect of antagonist on agonist-induced luminescence (D2R): strong decay in luminescence down to baseline

effect of sucrose on agonist response (AT1R [2]; 450 mM sucrose, Ang II response, plasma membrane): no effect on agonist response
effect of sucrose on agonist effect (AT1R [3]): dramatically blunted
SMILES: OC[C@H]1O[C@@](CO)(O[C@H]2O[C@H](CO)[C@@H](O)[C@H](O)[C@H]2O)[C@@H](O)[C@@H]1O [sucrose]

SMILES: NCCc1ccc(O)c(O)c1 [dopamine, Dopamine hydrochloride]
response in MeNArC and EeNArC assays without receptor [1]: no response was observed

SMILES: C[C@@H](NC(=O)[C@@H](N)Cc1ccc(O)cc1)C(=O)NCC(=O)N(C)[C@@H](Cc1ccccc1)C(=O)NCCO [DAMGO, [D-Ala^2, N-MePhe^4, Gly-ol]-enkephalin]
pEC50 ± SD (MOR 11S/T-A; MOR 11S/T-A, β-arrestin2): 6.82 ± 0.19
efficacy for MOR 11S/T-A compared with WT MOR (MOR 11S/T-A; from fold changes): 65%
EC80 (MOR): 60 nM
response in MeNArC and EeNArC assays without receptor [1]: no response was observed

SMILES: CC(C)C[C@H]1C(=O)N2CCC[C@H]2[C@]2(O)O[C@](NC(=O)[C@@H]3C=C4c5cccc6[nH]c(Br)c(c56)C[C@H]4N(C)C3)(C(C)C)C(=O)N12 [bromocriptine]
EC50 (D2R): 66.1 nM
efficacy compared with dopamine (D2R): 46%

Reference: article PMC8027564, “A novel luminescence-based β-arrestin recruitment assay for unmodified receptors” (The Journal of Biological Chemistry, 2021)
